# Assay results reported in patent publication US10155985B2, “Evaluation of eosinophilic esophagitis” (CHILDREN'S HOSPITAL MEDICAL CENTER, priority 2004, dated 2018).
# Test system: EE transcriptome
# Assay: Genome-wide microarray transcript profiling of esophageal biopsies, EE patients vs normal individuals (EE transcriptome)
# Conditions: transcript level in esophageal biopsies of EE patients (n=76) compared to normal individuals (n=13); Affymetrix Human Genome U133 plus 2; p<0.01
# Experimental: Esophageal tissue obtained from patients previously diagnosed with EE was analyzed. Diagnosis was based on analysis of excised tissue from endoscopic biopsy. Tissues from patients with EE, as well as patients not having EE (controls) were subjected to genome-wide microarray transcript profiling (Affymetrix GeneChip). All work was performed at the Core facility at Children's Hospital Medical Center (Cincinnati Ohio).
# Briefly, RNA quality was first assessed using the Agilent bioanaiyzer (Agilent Technologies, Palo Alto Calif.). Only mRNA having a ratio of 28S/18S between 1.3 and 2 were subsequently used. RNA was converted to cDNA with Superscript choice for cDNA synthesis (Invitrogen, Carlsbad Calif.) and subsequently converted to biotinylated cRNA with Enzo High Yield RNA Transcript labeling kit (Enzo Diagnostics, Farmingdale N.Y.). After hybridization to the GeneChip (Affymetrix, Santa Clara Calif.), the chips were automatically washed and stained with streptavidin-phycoerythrin using a fluidics system. The chips were scanned with a Hewlett Packard GeneArray Scanner. Over 30,000 unique genes were screened.
# Levels of gene transcripts were determined from data image files, using algorithms in the Microarray Analysis Suite software (Affymetrix). Levels from chip to chip were compared by global scaling. Each gene was typically represented by a probe set of 16 to 20 probe pairs. Each probe pair consisted of a perfect match oligonucleotide and a mismatch oligonucleotide that contained a one base mismatch at a central position. Two measures of gene expression were used, absolute call and average difference. Absolute call is a qualitative measure in which each gene is assigned a call of present, marginal or absent, based on the hybridization of the RNA to the probe set. Average difference is a quantitative measure of the level of gene expression, calculated by taking the difference between […] of every probe pair and averaging the differences over the entire probe set. Data were normalized and an EE transcriptome gene list was created with results having p<0.01 (Welch t-test with or without false rate discovery) and ≥1.5-fold change.
# For evaluation of EE using clinical and/or physical assessment, biopsy tissues (obtained from the distal esophagus during routine endoscopy) were submerged in formalin for routine pathological analysis with hematoxylin and eosin staining. Diagnosis was established based on the maximum eosinophil count per high power field (hpf) and basal layer expansion according to method known in the art (e.g., established criteria in Rothenberg et al., Pathogenesis and clinical features of eosinophilic esophagitis. J Allergy Clin Immunol 108 (2001) 891; Attwood et al., Esophageal eosinophilia with dysphagia. A distinct clinicopathologic syndrome. Dig Dis Sci 38 (1993)109; Fox et al., Eosinophilic esophagitis: its not just kid's stuff. Gastrointest Endosc 56 (2002) 26, each of which is expressly incorporated by reference herein in its entirety. Normal individuals (NL), n=13, served as a control and were defined as having 0 eosinophils/hpf and no basal layer expansion. Individuals with EE (n=76) were defined as having >24 eosinophils/hpf and extensive basal layer hyperplasia (expansion to about >⅓ of epithelium).
# The data were analyzed by cluster analysis and ordered (standard correlation (A) and distance (B)) using Genespring software. […] Each column represented a separate individual and each line a gene. RNA from each patient was subjected to chip analysis using Affymetrix Human Genome U133 GeneChip plus 2.
row,Molecule,Fold Change
1,SIGLEC6,3.199
2,SEPX1,2.611
3,SIDT1,4.822
4,SFRP1,4.098
5,SCUBE1,2.689
6,ADAM28,2.613
7,SCUBE2,5.502
8,ACSL5,2.745
9,SAMSN1,7.119
10,SH2D1B,3.098
11,SGK,3.139
12,SH3RF2,3.122
13,SEC6L1,8.878
14,SERPINB4,4.328
15,SLC15A1,2.792
16,SDPR,2.293
17,SCIN,3.17
18,SECTM1,3.282
19,SE57-1,4.055
20,"SEQ_ID_#58 (nucleic acid, listed as Homo sapiens) DNA: ATGAAGGCCAACTACAGCGCAGAGGAGCGCTTTCTCCTGCTGGGTTTCTCCGACTGGCCTTCCCTGCAGCCGGTCCTCTTCGCCCTTGTCCTCCTGTGCTACCTCCTGACCTTGACGGGCAACTCGGCGCTGGTGCTGCTGGCGGTGCGCGACCCGCGCCTGCACACGCCCATGTACTACTTCCTCTGCCACCTGGCCTTGGTAGACGCGGGCTTCACTACTAGCGTGGTGCCGCCGCTGCTGGCCAACCTGCGCGGACCAGCGCTCTGGCTGCCGCGCAGCCACTGCACGGCCCAGCTGTGCGCATCGCTGGCTCTGGGTTCCGCCGAATGCGTCCTCCTGGCGGTGATGGCTCTGGACCGCGCGGCCGCAGTGTGCCGCCCGCTGCGCTATGCGGGGCTCGTCTCCCCGCGCCTATGTCGCACGCTGGCCAGCGCCTCCTGGCTAAGTGGCCTCACCAACTCGGTTGCGCAAACCGCGCTCCTGGCTGAGCGGCCGCTGTGCGCGCCCCGCCTGCTGGACCACTTCATCTGTGAGCTGCCGGCGTTGCTCAAGCTGGCCTGCGGAGGCGACGGAGACACTACCGAGAACCAGATGTTCGCCGCCCGCGTGGTCATCCTGCTGCTGCCGTTTGCCGTCATCCTGGCCTCCTACGGTGCCGTGGCCCGAGCTGTCTGTTGCATGCGGTTCAGCGGAGGCCGGAGGAGGGCGGTGGGCACGTGTGGGTCCCACCTGACAGCCGTCTGCCTGTTCTACGGCTCGGCCATCTACACCTACCTGCAGCCCGCGCAGCGCTACAACCAGGCACGGGGCAAGTTCGTATCGCTCTTCTACACCGTGGTCACACCTGCTCTCAACCCGCTCATCTACACCCTCAGGAATAAGAAAGTGAAGGGGGCAGCGAGGAGGCTGCTGCGGAGTCTGGGGAGAGGCCAGGCTGGGCAGTGA",4.822
21,"SEQ_ID_#65 (nucleic acid, listed as Homo sapiens) DNA: ATGAAGGCCAACTACAGCGCAGAGGAGCGCTTTCTCCTGCTGGGTTTCTCCGACTGGCCTTCCCTGCAGCCGGTCCTCTTCGCCCTTGTCCTCCTGTGCTACCTCCTGACCTTGACGGGCAACTCGGCGCTGGTGCTGCTGGCGGTGCGCGACCCGCGCCTGCACACGCCCATGTACTACTTCCTCTGCCACCTGGCCTTGGTAGACGCGGGCTTCACTACTAGCGTGGTGCCGCCGCTGCTGGCCAACCTGCGCGGACCAGCGCTCTGGCTGCCGCGCAGCCACTGCACGGCCCAGCTGTGCGCATCGCTGGCTCTGGGTTCCGCCGAATGCGTCCTCCTGGCGGTGATGGCTCTGGACCGCGCGGCCGCAGTGTGCCGCCCGCTGCGCTATGCGGGGCTCGTCTCCCCGCGCCTATGTCGCACGCTGGCCAGCGCCTCCTGGCTAAGTGGCCTCACCAACTCGGTTGCGCAAACCGCGCTCCTGGCTGAGCGGCCGCTGTGCGCGCCCCGCCTGCTGGACCACTTCATCTGTGAGCTGCCGGCGTTGCTCAAGCTGGCCTGCGGAGGCGACGGAGACACTACCGAGAACCAGATGTTCGCCGCCCGCGTGGTCATCCTGCTGCTGCCGTTTGCCGTCATCCTGGCCTCCTACGGTGCCGTGGCCCGAGCTGTCTGTTGCATGCGGTTCAGCGGAGGCCGGAGGAGGGCGGTGGGCACGTGTGGGTCCCACCTGACAGCCGTCTGCCTGTTCTACGGCTCGGCCATCTACACCTACCTGCAGCCCGCGCAGCGCTACAACCAGGCACGGGGCAAGTTCGTATCGCTCTTCTACACCGTGGTCACACCTGCTCTCAACCCGCTCATCTACACCCTCAGGAATAAGAAAGTGAAGGGGGCAGCGAGGAGGCTGCTGCGGAGTCTGGGGAGAGGCCAGGCTGGGCAGTGA",4.547

# Same assay, conditions: transcript level in esophageal biopsies of EE patients compared to normal individuals (NL); Affymetrix Human Genome U133 plus 2; p<0.01; >1 up-regulated, <1 down-regulated
row,Molecule,Fold Change
1,AADAT,0.608
2,SH3BP5,0.622
3,ADAMTS17,0.631
4,ACADL,0.588
5,SAMD9,0.634
6,SGPL1,0.63
7,13CDNA73,0.632
8,ABHD6,0.609
9,ADAR,1.509
10,SF3B3,0.655
11,SC5DL,0.6
12,ACOX2,0.592
13,SCYL2,1.507
14,SFRS5,0.666
15,SCEL,0.631
16,ABCC1,0.622
17,SEC24C,0.647
18,"SEQ_ID_#787 (nucleic acid, listed as Homo sapiens) DNA: TTTGGTACAGAATGAAACCGTTCTCTTTGAAGAACTGCATGTTTCCCCCAGTCATTTTTGTCCTGGGGGAGTCAAGTGTTTTTACGGACCCTTGAAGCTTGAGGACACTCTGGCATCACCCATTGTTGGGGTGACTTTCTGGTGATTATCAGTGAGCAAACTTCAAGGCCAGCTCCGATTAGGAAAATCTGCCAAGTGTGAGTTTCCTTGGAGCTAGGACTGGGCAGAGACCCCTGGTCCTTGGTCCGTAGGGAAGCTGGGGGATTTGGGGGGTAAGTAATGAGATCATGTCTGCAGAGGCCCCCAGCCTCTTGGAAGAAGATTCCGCTGTAATTTCTTGGAAAAAGCCAACTCCTTCCAGCCCTTTCTGCTCACACCATCTCAGTTTTCCTGGCTGG",1.528
19,"SEQ_ID_#783 (nucleic acid, listed as Homo sapiens) DNA: TATCACGCACAAATTGCAATTACTTCACACTCACGATAACCCATTAATCTGTGAAGGATTAATCTGTTCATGAAGGCAGGGCCCTCATGATGGAATCACATCTTAAAGCCCCTACGTCTGAGTACTGTTACATTGGGGATTTAGTTTTAATATGATTTTCAGAGCAGAAAAACATTCAAACCATAGCAATATGTATTGAATATCTAGATCATTTCCAAATAAGATATTAATATGATACTGAAACATTTATTGCTGAACATAAATTTAGAACTTACTTTGCCTACCTATTACAGAAGAACAAAAGATATTTGGGCCTATTAAACCTTTCCTCTGCCATTTCCTGTCCTGTGTCATAGGACTAGGAATCGTGTTTCTAGAAGGTATGAAATCGTGTGCTTGCAAACTTGGAAGAAAACAGTTCATGACTGCATACCTTCTAGTTCTCTAGTGTTCACTGGAAATTAAAGACACTAAAAGTTAACAATTCTTATTAATTAATCATATTAATGTAATTGGAATTTCTAGAAATATTAGGGGAAGCAACTTTATACGCAAAGCATAACAGAAAAATAAGGTGTATTTTTTCTTTGAAACCTATGAAATATACTGGCCAGGCACGGTGGCTCATGCTTGTAATCCCAGCACTTTGGGAAGCTGAAGCGGTGGATCACCTGAGCTCAGGAGTCCGAGACCAGCTGGCCACATGTTGAACCATGTCTCTACTAAAATACAAAATTAGCAGTCATGTGCGGTGCTGTACCCCAGTACTCGGAGCTGGGGGGAATCGTGACCGGGTGGGTGCTGACCAAACCTGGCCCAGCGGGAAAGAGACTTTAAAACAATGGACCAAACTGCACAAGCTCTGCCACACTTGTCGAACCCGTGGACGCACAAGAAAAGGGCATCTGGACCTGGAATAACGAAACGACACATCT",1.53
